Positions of bridges follow the written chain, without caps; N, C: chain ends. No end group written: not given here.
Columns and labels:
A. baumannii 1408 [1] = test: Transcriptome analysis (RNA sequencing, FPKM, DESeq); type: cell-based, Acinetobacter baumannii; settings: Ab, Ta 16 μg/ml or Lvf 32 μg/ml, 30 min, 37°C
Method: (§1) The Vitek 32 system (bioMerieux, France) and 16S rDNA sequencing were used to verify the clinical isolates A. baumannii 1408, P. aeruginosa 1409, Klebsiella pneumoniae 5 and E. coli 513, which were grown overnight in Luria-Bertani (LB) medium at 37°C with constant shaking at 220 rpm to reach the middle of their logarithmic growth phase. […] After the addition of 2 volumes of RNAprotect Bacteria Reagent (QIAGEN) to stabilized RNA, samples were vortexed for 5 s, incubated for 5 min at room temperature (15–25°C) and collected by centrifugation at 4°C for 5 min at 4000 g.
(§2) RNA isolation and sequencing were performed by Novogene Bioinformatics Technology Co., Ltd. (Beijing, China) as previously described ([Liu B. et al., 2014]). Clean reads were mapped to the corresponding bacterial genomes using Bowtie 2 software ([Langmead and Salzberg, 2012]). Gene expression was calculated using the FPKM (expected number of fragments per kilobase of transcript sequence per millions of base pairs sequenced) method with HTSeq software (union model) ([Anders et al., 2015]). Differentially expressed genes were selected based on the DESeq R package with Padj values < 0.05 ([Anders and Huber, 2010]). KEGG pathway analysis was performed using KOBAS (2.0), and the corrected p value cut-off was set at 0.05 ([Li et al., 2015]).

[2] = test system: P. aeruginosa strain 1409; test: Membrane rupture by propidium iodide staining; type: cell-based, Pseudomonas aeruginosa; settings: LB medium, 25°C, 1 h, then PI 10 μg/ml 30 min
Method: These studies were carried out as we previously reported with slight modifications and briefly introduced as follows ([Liu et al., 2017]). […] Cytotoxicity in different cell lines was assessed using the Cell Proliferation Kit II (XTT) (Roche), and cytotoxicity in hemocytes was evaluated by the increase in the absorbance at 540 nm after peptide incubation. Membrane rupture was indicated by the entrance of the DNA-binding fluorescent dye PI into MDR clinical isolates of P. aeruginosa strain 1409. Membrane translocation of N-terminal FITC-conjugated tachyplesin III (purity ≥ 95%, synthesized by GL Biochem Co., Ltd, Shanghai, China) into MDR clinical isolates of Acinetobacter baumannii strain 1408 were detected by confocal laser-scanning microscopy.
After centrifugation at 3000 g for 10 min, cells were resuspended in the same volume of PBS (phosphate-buffered saline, 8 g/L NaCl, 0.2 g/L KCl, 1.44 g/L Na2HPO4, 0.24 g/L KH2PO4, pH 7.4). Then, PI was added to a final concentration of 10 μg/ml. After 30 min of incubation at 25°C, the cells were washed three times with PBS and immediately imaged with a fluorescence microscope.

P. aeruginosa 1409 [3] = test: MIC against MDR clinical isolate; type: cell-based, Pseudomonas aeruginosa
A. baumannii 1408 [4] = test: MIC against MDR clinical isolate; type: cell-based, Acinetobacter baumannii
E. coli 513 [5] = test: Transcriptome analysis (RNA sequencing, FPKM, DESeq); type: cell-based, Escherichia coli; settings: Ec, Ta 16 μg/ml or Lvf 32 μg/ml, 30 min, 37°C
Method: as §1, §2

E. coli 513 [6] = test: MIC against clinical isolate; type: cell-based, Escherichia coli
K. pneumoniae 5 [7] = test: Transcriptome analysis (RNA sequencing, FPKM, DESeq); type: cell-based, Klebsiella pneumoniae; settings: Kp, Ta 16 μg/ml or Lvf 32 μg/ml, 30 min, 37°C
Method: as §1, §2

K. pneumoniae 5 [8] = test: MIC against clinical isolate; type: cell-based, Klebsiella pneumoniae
P. aeruginosa 1409 [9] = type: cell-based, Pseudomonas aeruginosa; settings: Pa, Ta 16 μg/ml or Lvf 32 μg/ml, 30 min, 37°C
Method: as §1, §2

[10] = molecular target: T1, 3-ketoacyl carrier protein reductase FabG from E. coli (E. coli, UniProt P0AEK2 1-244); test: SPR; tachyplesin III amine-coupled to a CM5 chip (approximately 1000 resonance units); FabG (1.25, 2.5, 5, 10 μg/mL) in HBS-N running buffer injected at 20 μl/min for 6 min; Biacore 3000; 1:1 Langmuir binding model; settings: both partners purified
T1 construct: FabG, 3-ketoacyl-acyl carrier protein reductase, E. coli; cloned into the NcoI and XhoI sites of pET28a; also called 3-ketoacyl-acyl carrier protein reductase; β-ketoacyl-acyl carrier protein (ACP) reductase FabG; source: E. coli BL21 DE3 (pET28a), purified with Ni resin
T1 sequence: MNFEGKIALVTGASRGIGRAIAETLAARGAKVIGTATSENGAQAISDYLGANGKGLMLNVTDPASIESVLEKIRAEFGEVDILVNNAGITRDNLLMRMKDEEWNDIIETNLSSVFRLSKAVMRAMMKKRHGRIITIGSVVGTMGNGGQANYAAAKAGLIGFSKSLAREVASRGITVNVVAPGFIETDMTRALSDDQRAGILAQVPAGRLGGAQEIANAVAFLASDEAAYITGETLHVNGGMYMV

Molecule: C[C@H]1COc2c(N3CCN(C)CC3)c(F)cc3c(=O)c(C(=O)O)cn1c23 [levofloxacin]
- FPKM of gene A1S_1815 (A. baumannii 1408 [1]; control 0): 0
- FPKM of gene Novel00132 (A. baumannii 1408 [1]; control 18.2658): 8.387
- FPKM of gene A1S_0707 (A. baumannii 1408 [1]; control 51.3724): 62.4914
- FPKM of gene A1S_2182 (A. baumannii 1408 [1]; control 136.449): 191.991
- FPKM of gene A1S_2061 (3-ketoacyl-acyl carrier protein reductase) (A. baumannii 1408 [1]; control 323): 328
- FPKM of gene A1S_1368 (A. baumannii 1408 [1]; control 2030.48): 1961.71
- readcount of gene A1S_0001 in treated sample (A. baumannii 1408 [1]; differential analysis): 246.119
- readcount of gene A1S_0002 in treated sample (A. baumannii 1408 [1]; differential analysis): 308.109
- readcount of gene A1S_0003 in treated sample (A. baumannii 1408 [1]; differential analysis): 33.1432
- readcount of gene A1S_0004 in treated sample (A. baumannii 1408 [1]; differential analysis): 622.97
- membrane integrity (PI fluorescence) ([2]; 1/4× MIC): did not affect the integrity of bacterial membranes
- membrane integrity (PI fluorescence) ([2]; 4× MIC (high concentration)): some of the bacterial membranes were broken slightly
- 32 μg/ml levofloxacin expressed as multiple of MIC (P. aeruginosa 1409 [3]; P. aeruginosa 1409): 2 × MIC
- 1/4× MIC (P. aeruginosa 1409 [3]; P. aeruginosa strain 1409): 4 µg/mL
- 4× MIC (P. aeruginosa 1409 [3]; P. aeruginosa strain 1409): 64 µg/mL
- 32 μg/ml levofloxacin expressed as multiple of MIC (A. baumannii 1408 [4]): 1 × MIC
- FPKM of gene b1943 (E. coli 513 [5]; control 0): 0
- FPKM of gene b1815 (E. coli 513 [5]; control 22.7313): 15.6958
- FPKM of gene b0242 (E. coli 513 [5]; control 40.7621): 43.1933
- FPKM of gene b2495 (E. coli 513 [5]; control 62.5019): 46.4771
- FPKM of gene b4004 (E. coli 513 [5]; control 64.6122): 63.7219
- FPKM of gene b3846 (3-hydroxyacyl-CoA dehydrogenase) (E. coli 513 [5]; control 97): 94
- FPKM of gene b1093 (3-ketoacyl-acyl carrier protein reductase) (E. coli 513 [5]; control 633): 627
- readcount of gene b0001 in treated sample (E. coli 513 [5]; differential analysis): 28.7713
- readcount of gene b0002 in treated sample (E. coli 513 [5]; differential analysis): 277.558
- readcount of gene b0003 in treated sample (E. coli 513 [5]; differential analysis): 192.091
- readcount of gene b0004 in treated sample (E. coli 513 [5]; differential analysis): 222.554
- readcount of gene b0005 in treated sample (E. coli 513 [5]; differential analysis): 14.3856
- 32 μg/ml levofloxacin expressed as multiple of MIC (E. coli 513 [6]): 1 × MIC
- FPKM of gene KPNJ2_01473 (K. pneumoniae 5 [7]; control 0): 1.282
- FPKM of gene KPNJ2_01064 (K. pneumoniae 5 [7]; control 3.68216): 0
- FPKM of gene KPNJ2_04725 (K. pneumoniae 5 [7]; control 22.8601): 21.9489
- FPKM of gene KPNJ2_03426 (3-ketoacyl-acyl carrier protein reductase) (K. pneumoniae 5 [7]; control 41.4): 80.6
- FPKM of gene KPNJ2_01584 (Enoyl-CoA hydratase) (K. pneumoniae 5 [7]; control 128): 190
- FPKM of gene KPNJ2_04200 (K. pneumoniae 5 [7]; control 4040.19): 4507.07
- readcount of gene KPNJ2_00001 in treated sample (K. pneumoniae 5 [7]; differential analysis): 119.391
- readcount of gene KPNJ2_00002 in treated sample (K. pneumoniae 5 [7]; differential analysis): 95.8073
- readcount of gene KPNJ2_00003 in treated sample (K. pneumoniae 5 [7]; differential analysis): 27.2682
- readcount of gene KPNJ2_00004 in treated sample (K. pneumoniae 5 [7]; differential analysis): 368.489
- readcount of gene KPNJ2_00005 in treated sample (K. pneumoniae 5 [7]; differential analysis): 375.122
- 32 μg/ml levofloxacin expressed as multiple of MIC (K. pneumoniae 5 [8]): 2 × MIC
- FPKM of gene PADK2_26395 (P. aeruginosa 1409 [9]; control 7.76041): 10.0809
- FPKM of gene PADK2_02440 (P. aeruginosa 1409 [9]; control 10.8663): 14.499
- FPKM of gene PADK2_25635 (P. aeruginosa 1409 [9]; control 48.5098): 42.4346
- FPKM of gene PADK2_02970 (P. aeruginosa 1409 [9]; control 53.0528): 66.953
- FPKM of gene PADK2_25405 (3-ketoacyl-acyl carrier protein reductase) (P. aeruginosa 1409 [9]; control 56): 43
- FPKM of gene PADK2_17500 (P. aeruginosa 1409 [9]; control 97.7062): 119.076
- FPKM of gene PADK2_09275 (3-hydroxyacyl-CoA dehydrogenase) (P. aeruginosa 1409 [9]; control 361): 369
- readcount of gene Novel00001 in treated sample (P. aeruginosa 1409 [9]; differential analysis): 77.24
- readcount of gene Novel00002 in treated sample (P. aeruginosa 1409 [9]; differential analysis): 21.4195
- readcount of gene Novel00003 in treated sample (P. aeruginosa 1409 [9]; differential analysis): 79.1872
- readcount of gene Novel00004 in treated sample (P. aeruginosa 1409 [9]; differential analysis): 104.501
- readcount of gene Novel00005 in treated sample (P. aeruginosa 1409 [9]; differential analysis): 85.0289

B1: tachyplesin III (peptide)
peptide: KWCFRVCYRGICYRKCR
modifications: disulfide 7-12, 3-16; ends not checked
notes: tachyplesin III, cationic beta-hairpin antimicrobial peptide from horseshoe crab hemocytes; 17 residues; Coupled to the CM5 chip through amines in the SPR; source: synthetic peptide (purity ≥ 95%, synthesized by GL Biochem Co., Ltd, Shanghai, China)
- binding result [10]: binds

— article PMC5938390, “Tachyplesin Causes Membrane Instability That Kills Multidrug-Resistant Bacteria by Inhibiting the 3-Ketoacyl Carrier Protein Reductase FabG” (Frontiers in Microbiology, 2018)
